Results taken from patent US20100197650A1, “COMPOSITIONS AND METHODS OF TREATMENT COMPRISING CEFTAROLINE” (FOREST LABORATORIES HOLDINGS LTD., priority 2008, published 2010).
≈ marks a conversion by molar mass, not a printed value.

Columns and labels:
[1] = tested on: Enterococcus faecalis; assay: MIC, broth microdilution (Example 1); assay type: cell-based
Method in brief: (§1)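 Broth microdilution per CLSI M7-A7; H. influenzae in Haemophilus Test Medium, streptococci in Mueller Hinton II Broth with 2% lysed horse blood, other organisms in Mueller Hinton II Broth. Two-fold serial dilutions; plates incubated 35° C ~20 hours, MIC read visually as growth/no-growth.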

[2] = tested on: Streptococcus pneumoniae; assay: MIC, broth microdilution (Example 1); assay type: cell-based; settings: Streptococcus pneumoniae
Method in brief: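 Frozen clinical or ATCC isolates are subcultured overnight on agar at 35 °C. Agents are serially diluted 2-fold in DMSO, then added to broth at 5% volume: HTM for Haemophilus, MH II for the rest, plus 2% lysed horse blood for pneumococci. Plates are incubated ~20 h at 35 °C and read visually.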

[3] = tested on: Staphylococcus aureus; assay: MIC, broth microdilution (Example 1); assay type: cell-based; settings: Staphylococcus aureus
Method in brief: as §1

[4] = tested on: HA-MRSA; assay: Time-kill curves at ¼ and ½ MIC (Example 3); assay type: cell-based, Staphylococcus aureus; settings: drug alone at ½ MIC, the 4 tested HA-MRSA strains
Method: Four randomly selected HA-MRSA isolates were evaluated in time-kill experiments, using a starting inoculum at ˜10^6 CFU/mL and antimicrobials at ¼ and ½ MIC. Regimens included ceftaroline, vancomycin and tobramycin alone or combination of tobramycin with ceftaroline or vancomycin. […] Additivity, antagonism and indifference were defined as <2 but >1 log10 kill, >1 log10 growth and ±1 log kill, respectively.
Differences between regimens were analyzed by T-test or ANOVA with Tukey's post hoc test. […] A P value <0.05 was considered significant.

[5] = tested on: HA-MRSA; assay: Susceptibility testing MIC/MBC, broth microdilution (Example 3); assay type: cell-based, Staphylococcus aureus
Method: Two hundred clinical HA-MRSA isolates, harboring the SCCmecIV type, were evaluated for susceptibility testing. […] Four strains, including 1 hVISA and 1 VISA, characterized by population analysis profile and Macro Etest were selected for time-kill analysis.
Trypose soy agar (TSA; Difco, Detroit, Mich.) was used for colony counting.
Minimum inhibitory concentrations (MIC) and minimum bactericidal concentrations (MBC) were determined by broth microdilution for all antimicrobials, according to the Clinical and Laboratory Standards Institute (CLSI) guidelines (Clinical and Laboratory Standards Institute. 2006. Methods for Dilution Antimicrobial Susceptibility Tests for Bacteria That Grow Aerobically; Approved Standard. 7th ed. Wayne, Pa.: CLSI). MBC values were determined by plating of aliquots of 5 μL from clear wells onto TSA. All susceptibility testing were performed in duplicate.

[6] = Staphylococcus aureus, MRSA / VISA, HA-MRSA isolate R2303 (VISA)
[7] = Staphylococcus aureus, MRSA, HA-MRSA isolate R3804
[8] = Staphylococcus aureus, MRSA, HA-MRSA isolate R3875 (hVISA)
[9] = Staphylococcus aureus, MRSA, HA-MRSA isolate R4039

Which MIC ([1]; E. faecalis 0796 (VSE)) does the source give for `CN[C@H](CC(C)C)C(=O)N[C@H]1C(=O)N[C@@H](CC(N)=O)C(=O)N[C@H]2C(=O)N[C@H]3C(=O)N[C@H](C(=O)N[C@H](C(=O)O)c4cc(O)cc(O)c4-c4cc3ccc4O)[C@H](O)c3ccc(c(Cl)c3)Oc3cc2cc(c3O[C@@H]2O[C@H](CO)[C@@H](O)[C@H](O)[C@H]2O[C@H]2C[C@](C)(N)[C@H](O)[C@H](C)O2)Oc2ccc(cc2Cl)[C@H]1O` [Vancomycin] here?
The MIC was 2 µg/mL.

And the MIC ([1]; Enterococcus faecalis)?
Its MIC is 2 µg/mL.

What about the MIC ([2]; PRSP, S. pneumoniae 0880 (PRSP)) of the same molecule?
The MIC was 0.5 µg/mL.

And the MIC ([2]; PRSP, S. pneumoniae 0884 (PRSP))?
The MIC was 0.5 µg/mL.

And the MIC ([2]; S. pneumoniae 0866 (PSSP))?
The MIC was 0.25 µg/mL.

What about the MIC ([2]; S. pneumoniae 0869 (PSSP)) of the same molecule?
Its MIC is 0.5 µg/mL.

And the MIC ([3]; MRSA, S. aureus 0765 (MRSA))?
Its MIC is 2 µg/mL.

What about the MIC ([3]; MRSA, S. aureus 2053 (MRSA)) of the same molecule?
The MIC was 1 µg/mL.

And the MIC ([3]; MSSA, S. aureus 0753 (MSSA))?
Its MIC is 1 µg/mL.

What about the MIC ([3]; MSSA, S. aureus 2063 (MSSA)) of the same molecule?
Its MIC is 1 µg/mL.

And the bactericidal activity [4]?
Its bactericidal activity is “did not display bactericidal activity”.

What about the “% of Isolates with MBC 0.25 μg/mL” value ([5]; 200 HA-MRSA isolates) of the same molecule?
Its value is 0.5%.

And the “% of Isolates with MBC 0.5 μg/mL” value ([5]; 200 HA-MRSA isolates)?
Its value is 6%.

What about the “% of Isolates with MBC 1 μg/mL” value ([5]; 200 HA-MRSA isolates) of the same molecule?
The value was 52.5%.

And the “% of Isolates with MBC 2 μg/mL” value ([5]; 200 HA-MRSA isolates)?
The value was 36.5%.

What about the “% of Isolates with MBC ≧4 μg/mL” value ([5]; 200 HA-MRSA isolates) of the same molecule?
Its value is 4.5%.

And the “% of Isolates with MIC 0.25 μg/mL” value ([5]; 200 HA-MRSA isolates)?
The value was 1.5%.

What about the “% of Isolates with MIC 0.5 μg/mL” value ([5]; 200 HA-MRSA isolates) of the same molecule?
The value was 14.5%.

What about the “% of Isolates with MIC 1 μg/mL” value ([5]; 200 HA-MRSA isolates) of the same molecule?
The value was 62%.

And the “% of Isolates with MIC 2 μg/mL” value ([5]; 200 HA-MRSA isolates)?
The value was 21.5%.

What about the “% of Isolates with MIC ≧4 μg/mL” value ([5]; 200 HA-MRSA isolates) of the same molecule?
The value was 0.5%.

What about the “MBC range” value ([5]; 200 HA-MRSA isolates) of the same molecule?
The value was 0.25 to 4 µg/mL.

And the “MIC range” value ([5]; 200 HA-MRSA isolates)?
Its value is 0.25 to 4 µg/mL.

What about the MIC50 ([5]; Staphylococcus aureus, MRSA) of the same molecule?
Its MIC50 is 1 µg/mL (≈ 0.69 µM).

And the MIC90 ([5]; Staphylococcus aureus, MRSA)?
Its MIC90 is 2 µg/mL (≈ 1.38 µM).

And the MBC [5, 6]?
The MBC was 8 µg/mL (≈ 5.52 µM).

And the MIC [5, 6]?
The MIC was 4 µg/mL (≈ 2.76 µM).

And the MBC [5, 7]?
The MBC was 1 µg/mL (≈ 0.69 µM).

And the MIC [5, 7]?
The MIC was 0.5 µg/mL (≈ 0.345 µM).

What about the MBC [5, 8] of the same molecule?
The MBC was 2 µg/mL (≈ 1.38 µM).

And the MIC [5, 8]?
Its MIC is 2 µg/mL (≈ 1.38 µM).

What about the MBC [5, 9] of the same molecule?
The MBC was 1 µg/mL (≈ 0.69 µM).

And the MIC [5, 9]?
The MIC was 1 µg/mL (≈ 0.69 µM).
